# Read-outs that look alike come from different tables or passages of the source.
# Key:
# [1] = system: HL-60 cells; experiment: HL-60 differentiation (nitro blue tetrazolium reduction); assay type: cell-based, human; details: differentiation of HL-60 cells into monocytes, FIG. 2, read-out: EC50, HL-60 cell differentiation
# Procedure: The study drugs were dissolved in ethanol and the concentrations determined using UV spectrophotometry. Serial dilutions were prepared so that a range of drug concentrations could be tested without changing the final concentration of ethanol (≤0.2%) present in the cell cultures.
# Human promyelocytic leukemia (HL60) cells were grown in RPMI-1640 medium containing 10% fetal bovine serum. The cells were incubated at 37° C. in the presence of 5% CO2.
# HL60 cells were plated at 1.2×10^5 cells/ml. Eighteen hours after plating, cells in duplicate were treated with drug. Four days later, the cells were harvested and a nitro blue tetrazolium reduction assay was performed (Collins et al., 1979; J. Exp. Med. 149:969-974). The percentage of differentiated cells was determined by counting a total of 200 cells and recording the number that contained intracellular black-blue formazan deposits. Verification of differentiation to monocytic cells was determined by measuring phagocytic activity (data not shown).
# [2] = target: T1, full-length recombinant rat vitamin D receptor (Rattus norvegicus, UniProt P13053); experiment: Vitamin D receptor binding, competition with [3H]-1,25(OH)2D3; details: full-length recombinant rat VDR; FIG. 1
# T1 construct: Full-length recombinant rat receptor was expressed in E. coli; histidine tag (C); made in house; host or cells: E. coli BL21 (DE3) Codon Plus RIL
# T1 sequence (P13053 1-423): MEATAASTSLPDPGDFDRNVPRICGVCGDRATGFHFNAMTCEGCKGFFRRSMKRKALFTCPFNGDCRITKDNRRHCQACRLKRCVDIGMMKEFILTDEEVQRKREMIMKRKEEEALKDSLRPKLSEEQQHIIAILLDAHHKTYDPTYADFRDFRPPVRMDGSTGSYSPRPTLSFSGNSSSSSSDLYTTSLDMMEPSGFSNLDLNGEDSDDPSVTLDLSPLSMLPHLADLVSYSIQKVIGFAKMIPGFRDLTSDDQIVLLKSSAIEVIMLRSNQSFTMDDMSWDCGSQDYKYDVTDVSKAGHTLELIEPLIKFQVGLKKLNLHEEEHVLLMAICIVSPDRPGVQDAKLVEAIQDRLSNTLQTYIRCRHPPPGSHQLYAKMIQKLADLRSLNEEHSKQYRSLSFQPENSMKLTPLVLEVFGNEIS
# Description: Vitamin D Receptor Binding
# Full-length recombinant rat receptor was expressed in E. coli BL21 (DE3) Codon Plus RIL cells and purified to homogeneity using two different column chromatography systems. The first system was a nickel affinity resin that utilizes the C-terminal histidine tag on this protein. The protein that was eluted from this resin was further purified using ion exchange chromatography (S-Sepharose Fast Flow). Aliquots of the purified protein were quick frozen in liquid nitrogen and stored at −80° C. until use. For use in binding assays, the protein was diluted in TEDK50 (50 mM Tris, 1.5 mM EDTA, pH7.4, 5 mM DTT, 150 mM KCl) with 0.1% Chaps detergent. The receptor protein and ligand concentration were optimized such that no more than 20% of the added radiolabeled ligand was bound to the receptor.
# The following day, 100 mcl of hydroxylapatite slurry (50%) was added to each tube and mixed at 10-minute intervals for 30 minutes. The hydroxylapaptite was collected by centrifugation and then washed three times with Tris-EDTA buffer (50 mM Tris, 1.5 mM EDTA, pH 7.4) containing 0.5% Titron X-100. After the final wash, the pellets were transferred to scintillation vials containing 4 ml of Biosafe II scintillation cocktail, mixed and placed in a scintillation counter. Total binding was determined from the tubes containing only radiolabeled ligand.
# [3] = system: 24-hydroxylase (24Ohase) gene promoter in ROS 17/2.8 (bone) cells; experiment: In vitro transcription assay (24-hydroxylase promoter luciferase reporter); assay type: cell-based; details: ROS 17/2.8 cells, FIG. 3, read-out: EC50, transcriptional activity in bone cells (24-hydroxylase gene)
# Procedure: In Vitro Transcription Assay
# Transcription activity was measured in ROS 17/2.8 (bone) cells that were stably transfected with a 24-hydroxylase (24Ohase) gene promoter upstream of a luciferase reporter gene (Arbour et al., 1998). Cells were given a range of doses. Sixteen hours after dosing the cells were harvested and luciferase activities were measured using a luminometer.
# RLU=relative luciferase units.
# [4] = Intestinal calcium transport (everted gut sac) in vitamin D-deficient rats; assay type: in vivo, rat
# Procedure: (§1) Intestinal Calcium Transport and Bone Calcium Mobilization
# (§2) Male, weanling Sprague-Dawley rats were placed on Diet 11 (0.47% Ca) diet+AEK oil for one week followed by Diet 11 (0.02% Ca)+AEK oil for 3 weeks. The rats were then switched to a diet containing 0.47% Ca for one week followed by two weeks on a diet containing 0.02% Ca. Dose administration began during the last week on 0.02% calcium diet. Four consecutive ip doses were given approximately 24 hours apart. Twenty-four hours after the last dose, blood was collected from the severed neck and the concentration of serum calcium determined as a measure of bone calcium mobilization. The first 10 cm of the intestine was also collected for intestinal calcium transport analysis using the everted gut sac method.
# [5] = Bone calcium mobilization (serum calcium) in vitamin D-deficient rats; assay type: in vivo, rat
# Procedure: as §1, §2
SMILES,EC50 ([1]; Homo sapiens),Ki [2],EC50 [3],"intestinal calcium transport activity at 87 pmol/day ([4]; 87 pmol/day for 4 consecutive days, FIG. 5A)","intestinal calcium transport activity at 260 pmol/day and then 780 pmol/day ([4]; 260 pmol/day and 780 pmol/day, 4 consecutive days, FIG. 5A)","intestinal calcium transport activity compared with 1,25(OH)2D3 ([4]; in vivo, dose dependent, FIGS. 5A and 5B)","bone calcium mobilization at 780 pmol/day ([5]; 780 pmol/day, FIG. 4B, second group of animals)","dose giving about the same mobilization of bone calcium as 1,25(OH)2D3 at 260 pmol/day ([5]; 4 consecutive days, ip, FIG. 4A, first group of animals)","dose giving about the same mobilization of bone calcium as native hormone at 780 pmol/day ([5]; 4 consecutive days, ip, FIG. 4B, second group of animals)","bone calcium mobilization activity, times less than 1,25(OH)2D3 ([5]; FIGS. 4A and 4B)",EC50 [1],"serum calcium levels (bone calcium mobilization) ([5]; vitamin D-deficient rats, low calcium diet (0.02%), all dosages, FIGS. 4A and 4B)"
"C=C1[C@H](O)CC(=C/C=C2\CCC[C@]3(C)[C@@H]([C@H](C)/C=C/C(=O)C4(C(=O)CCCCC)CC4)CC[C@@H]23)C[C@H]1O [UW-05, 2-methylene-(22E)-25-hexanoyl-24-oxo-26,27-cyclo-22-dehydro-19-nor-1α-hydroxyvitamin D3]",4 nM,0.3 nM,0.3 nM,did not result in substantial activity,a significant increase in effect was seen,"approximately equal to 1,25-dihydroxyvitamin D3",no substantial effect was seen,780 pmol/day,7020 pmol/day,about 10 times,,
"C=C1/C(=C\C=C2/CCC[C@]3(C)[C@@H]([C@H](C)CCCC(C)(C)O)CC[C@@H]23)C[C@@H](O)C[C@@H]1O [1α,25-dihydroxyvitamin D3, reference compound]",,,0.3 nM,,,,,,,,2 nM,increased serum calcium levels at all dosages

# — patent US10479764B2, “2-methylene-(22E)-25-hexanoyl-24-oxo-26,27-cyclo-22-dehydro-19-nor-vitamin D analogs” (WISCONSIN ALUMNI RESEARCH FOUNDATION, priority 2011, dated 2019)
